Measurements reported in publication PMC12693026, “Green Contributions to the Chemistry of Perezone and Oxidation of the Double Bond of the Side Chain: A Theoretical Study and Cytotoxic Evaluation in MDA-MB231 Cells” (Molecules, 2025).
Where two headings read alike, the source gives them in different places.

How the values were obtained:
[1] = system: MDA-MB-231 breast cancer cells; assay: MTT cytotoxicity assay on MDA-MB-231 breast cancer cells; assay type: cell-based; details: mean ± S.D. of three values
Experimental: (§1) This test was performed using the MDA-MB231 breast cancer cell line (ATCC® CRM-HBT-26), as described by Mosmann. The cells were incubated at different concentrations of the compounds of interest. To generate the cell viability curves of all synthesized compounds, cells were seeded in 96-well culture plates at a density of 5000 cells/well and cultured in DMEM supplemented with 10% FBS. Cell viability was measured using MTT reagent dissolved in PBS (0.5 mg/mL). On the day of measurement, the medium was carefully replaced with fresh DMEM and 10% SFB containing diluted MTT (1:10, 10% MTT), and the sample was incubated for 1 h at 37 °C in a CO2 incubator to allow for the transformation of MTT dye into Formazan salt. After removing the incubation medium, the Formazan crystals were dissolved in 100 µL of DMSO solution. It is also important to note that the reduction in MTT was quantified by measuring absorbance at 570 nm using the Benchmark Plus absorbance microplate reader (Bio-Rad). The MTT test was repeated nine times. The proliferation percentage (% viability) was calculated according to the following:% Viability = (B/A) × 100 where A is the absorbance value of the control group and B is the absorbance value of the cells treated with the compounds of interest.
IC50 was extrapolated from the dose–response plot, obtained by plotting viability versus concentration. The concentration of the drug that reduced the viability of the cells by 50% (IC50) was determined by plotting the data points in triplicate over a concentration range and calculating the values using regression analysis.

[2] = MTT mortality on normal fibroblasts (control); assay type: cell-based; details: human, primary dermal fibroblast normal cells, data from IC50 (µM)
Experimental: [The source words this procedure for another cell line and says it was used here with some conditions changed.] as §1

[3] = Solubility observed in the cytotoxic testing; assay type: physicochemical; details: observation during MTT testing
caspase-3 = details: cited from earlier work
[4] = Homo sapiens, MDA-MB-231, MDA-MB-231, MTT assay, read-out: IC50
[5] = Homo sapiens, MDA-MB-231, MDA-MB-231, MTT assay, read-out: IC50 (μg/mL)

Row | Compound | IC50 [1, 4] [µM] | IC50 [1, 5] [µg/mL] | mortality at 24 h [2] [%] | IC50 ([1]; MDA-MB-231, MTT assay) [µg/mL] | solubility in the cytotoxic/IC50 testing (in words) [3] | binding energy with caspase-3 (caspase-3; assessed for diabetes mellitus) [kcal/mol] | binding energy of complex with caspase-3 (caspase-3) [kcal/mol]
1 | CC(C)=CCC[C@@H](C)C1=CC(=O)C(C)=C(O)C1=O [Compound 2, isoperezone, reference compound] | 19.31 ± 0.05 | 4.79 ± 0.01 | – | – | – | – | –
2 | CC1=CC(=O)C(C(C)CCC2OC2(C)C)=C(O)C1=O (centres unmarked) [Compound 3] | 9.62 ± 0.76 | 2.54 ± 0.2 | 19.5 ± 3.27 | – | – | – | –
3 | CC1=C(O)C(=O)C(C(C)CCC2OC2(C)C)=CC1=O (centres unmarked) [Compound 4] | 114 ± 31.8 | 30 | 42.38 ± 0.19 | 30.2 ± 8.4 | – | – | –
4 | CC1=CC(=O)C(C(C)CCC2OC(C)(C)OC2(C)C)=C(O)C1=O (centres unmarked) [Compound 5] | 74.9 ± 14.8 | 24.1 ± 4.75 | 90.7 ± 0.58 | – | – | – | –
5 | CC1=C(O)C(=O)C(C(C)CCC2OC(C)(C)OC2(C)C)=CC1=O (centres unmarked) [Compound 6] | 8.44 ± 1.46 | 2.72 ± 0.47 | 18.4 ± 1.54 | – | – | – | –
6 | CC(=O)OC(C)(C)C(O)CCC(C)C1=C(O)C(=O)C(C)=CC1=O (centres unmarked) [Compound 7] | 103 ± 5.96 | 33.2 ± 1.93 | 96.8 ± 2.76 | – | did not show great solubility | – | –
7 | CC(=O)OC(C)(C)C(O)CCC(C)C1=CC(=O)C(C)=C(O)C1=O (centres unmarked) [Compound 8] | – | 33 | – | – | poor solubility | – | –
8 | CC1=CC(=O)C(C(C)CCC(O)C(C)(C)O)=C(O)C1=O (centres unmarked) [Compound 9] | 101 ± 19.2 | 28.4 ± 5.4 | 46.4 ± 1.08 | – | – | – | –
9 | CC1=C(O)C(=O)C(C(C)CCC(O)C(C)(C)O)=CC1=O (centres unmarked) [Compound 10] | 140 ± 6.13 | 39.4 ± 1.73 | 68.7 ± 1.08 | – | – | – | –
10 | O=C[C@H](O)[C@@H](O)[C@@H](O)[C@H](O)C(=O)O [D-galacturonic acid] | – | – | – | – | – | -4.03 | –
11 | CC1=CC(=O)c2c(O)cccc2C1=O [plumbagin] | – | – | – | – | – | – | -10.13
